# Measurements from patent US20220280476A1, “KCNT1 INHIBITORS AND METHODS OF USE” (Praxis Precision Medicines, Inc., priority 2019, published 2022).
# Target: T1, KCNT1 (KNa1.1, Slack) (Homo sapiens, UniProt Q5JUK3)
# T1 construct: expressed in transfected cells; host or cells: HEK-TREX (tetracycline-inducible HEK cell line)
# T1 sequence (Q5JUK3 1-1230): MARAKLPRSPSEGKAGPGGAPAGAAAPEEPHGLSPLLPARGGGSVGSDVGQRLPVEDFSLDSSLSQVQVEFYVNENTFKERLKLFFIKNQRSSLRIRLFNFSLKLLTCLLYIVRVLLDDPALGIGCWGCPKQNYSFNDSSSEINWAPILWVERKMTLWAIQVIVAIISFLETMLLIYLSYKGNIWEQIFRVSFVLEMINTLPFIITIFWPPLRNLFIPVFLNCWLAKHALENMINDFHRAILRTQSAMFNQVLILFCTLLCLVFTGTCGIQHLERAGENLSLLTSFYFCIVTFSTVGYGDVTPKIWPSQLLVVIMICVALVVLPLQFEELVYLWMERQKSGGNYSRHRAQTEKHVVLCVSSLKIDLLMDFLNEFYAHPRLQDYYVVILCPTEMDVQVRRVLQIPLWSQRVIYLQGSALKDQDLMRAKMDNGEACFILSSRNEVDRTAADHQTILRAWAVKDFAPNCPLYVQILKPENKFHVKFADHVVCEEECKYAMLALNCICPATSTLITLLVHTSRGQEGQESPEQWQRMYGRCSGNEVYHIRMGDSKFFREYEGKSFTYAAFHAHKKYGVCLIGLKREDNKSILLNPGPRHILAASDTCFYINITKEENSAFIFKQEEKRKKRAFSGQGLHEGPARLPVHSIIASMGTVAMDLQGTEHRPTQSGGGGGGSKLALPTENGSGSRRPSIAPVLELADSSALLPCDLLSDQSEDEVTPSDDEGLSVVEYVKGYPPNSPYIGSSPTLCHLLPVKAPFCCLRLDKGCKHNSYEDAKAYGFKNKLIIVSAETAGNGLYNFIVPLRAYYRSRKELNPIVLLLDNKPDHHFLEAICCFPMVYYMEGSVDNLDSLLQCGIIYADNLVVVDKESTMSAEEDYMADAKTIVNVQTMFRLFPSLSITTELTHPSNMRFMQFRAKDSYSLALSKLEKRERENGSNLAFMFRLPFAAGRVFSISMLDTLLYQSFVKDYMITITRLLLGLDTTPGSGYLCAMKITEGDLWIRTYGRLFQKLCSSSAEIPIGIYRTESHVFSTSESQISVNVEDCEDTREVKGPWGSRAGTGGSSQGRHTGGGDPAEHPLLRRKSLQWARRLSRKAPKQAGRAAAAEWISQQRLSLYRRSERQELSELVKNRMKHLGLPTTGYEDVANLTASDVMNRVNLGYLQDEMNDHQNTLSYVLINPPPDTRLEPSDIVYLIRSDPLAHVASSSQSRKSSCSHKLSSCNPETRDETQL
# Test: KCNT1-WT-Basal patch clamp assay (SyncroPatch 384PE, HEK-TREX inducible cell line)
# Type: cell-based
# Settings: tetracycline inducible HEK-TREX cells; perforated patch; holding -80 mV, 100 ms step to 0 mV; room temperature; read-out: KCNT1 WB IC50
# Description: KCNT1-WT-Basal—Patch Clamp Assay
# Inhibition of KCNT1 (KNa1.1, Slack) was evaluated using a tetracycline inducible cell line (HEK-TREX). Currents were recorded using the SyncroPatch 384PE automated, patch clamp system. Pulse generation and data collection were performed with PatchController384 V1.3.0 and DataController384 V1.2.1 (Nanion Technologies). The access resistance and apparent membrane capacitance were estimated using built-in protocols. Current were recorded in perforated patch mode (10 μM escin) from a population of cells. The cells were lifted, triturated, and resuspended at 800,000 cells/ml. The cells were allowed to recover in the cell hotel prior to experimentation. Currents were recorded at room temperature. The external solution contained the following (in mM): NaCl 105, NMDG 40, KCl 4, MgCl2 1, CaCl2 5 and HEPES 10 (pH=7.4, Osmolarity ˜300 mOsm). The extracellular solution was used as the wash, reference and compound delivery solution. The internal solution contained the following (in mM): NaCl 70, KF 70, KCl 10, EGTA 5, HEPES 5 and Escin 0.01 (pH=7.2, Osmolarity ˜295 mOsm). Escin is made at a 5 mM stock in water, aliquoted, and stored at −20° C. The compound plate was created at 2× concentrated in the extracellular solution. The compound was diluted to 1:2 when added to the recording well. The amount of DMSO in the extracellular solution was held constant at the level used for the highest tested concentration. A holding potential of −80 mV with a 100 ms step to 0 mV was used. Mean current was measured during the step to 0 mV. […] The average mean current from 3 sweeps was calculated and the % inhibition of each compound was calculated. The % Inhibition as a function of the compound concentration was fit with a Hill equation to derive IC50, slope, min and max parameters. If KCNT1 inhibition was less than 50% at the highest tested concentration or if an IC50 could not be calculated, then a percent inhibition was reported in place of the IC50.
row,IC50 [µM],Compound
1,≤ 1,NS(=O)(=O)c1ccc(C(=O)N[C@@H]2CCc3cc(Cl)ccc32)s1 [Compound I-4]
2,≤ 1,O=C(N[C@@H]1CCc2cc(Cl)ccc21)c1ccc(S(=O)(=O)N2CC[C@H](O)C2)s1 [Compound I-41]
3,≤ 1,"CS(=O)(=O)Nc1ccc(C(=O)N[C@@H]2CCc3cc(Cl)ccc32)cc1 [Compound II-4, N-[(1R)-5-chloroindan-1-yl]-4-(methanesulfonamido)benzamide]"
4,≥ 20,CS(=O)(=O)Nc1ccc(C(=O)N[C@H]2CCc3cc(Cl)ccc32)cc1 [Compound II-3]
5,≤ 1,CNS(=O)(=O)c1ccc(C(=O)N[C@@H]2CCc3cc(Cl)ccc32)cc1 [Compound II-27]
6,≤ 1,CN(c1ccc(C(=O)N[C@@H]2CCc3cc(Cl)ccc32)cc1)S(=O)(=O)C1CC1 [Compound II-14]
7,1 to 20,CN(C)C(=O)c1ccc(C(=O)N[C@@H]2CCc3cc(Cl)ccc32)cc1 [Compound II-23]
8,1 to 20,O=C(N[C@@H]1CCc2cc(Cl)ccc21)c1c(O)cccc1F [Compound III-8]
9,1 to 20,Cn1nc(C2CC2)cc1C(=O)N[C@@H]1CCc2cc(Cl)ccc21 [Compound I-2]
10,1 to 20,Cc1cc(S(N)(=O)=O)sc1C(=O)N[C@@H]1CCc2cc(Cl)ccc21 [Compound I-10]
11,≤ 1,O=C(N[C@@H]1CCc2cc(Cl)ccc21)c1ccc(S(=O)(=O)N2CCOCC2)s1 [Compound I-45]
12,≤ 1,NS(=O)(=O)c1ccc(C(=O)N[C@@H]2CCc3cc(Cl)ccc32)cc1 [Compound II-25]
13,≥ 20,Cc1cccc(O)c1C(=O)N[C@@H]1CCc2cc(Cl)ccc21 [Compound III-17]
14,1 to 20,"COc1ccc(C(=O)NC2CCc3cc(Cl)ccc32)cc1 (single isomer, unassigned) [Compound II-8, N-(5-chloroindan-1-yl)-4-methoxy-benzamide]"
15,≤ 1,Cc1ccc(O)c(C(=O)N[C@@H]2CCc3cc(Cl)ccc32)c1 [Compound III-12]
16,≤ 1,CNC(=O)c1ccc(C(=O)N[C@@H]2CCc3cc(Cl)ccc32)s1 [Compound I-28]
17,≤ 1,CCS(=O)(=O)N(C)c1ccc(C(=O)N[C@@H]2CCc3cc(Cl)ccc32)cc1 [Compound II-13]
18,1 to 20,"CNS(=O)(=O)c1ccc(C(=O)N[C@@H]2CCCc3cc(Cl)ccc32)s1 (single isomer, unassigned) [Compound I-23]"
19,> 20,"CS(=O)(=O)Nc1ccc(C(=O)NC2CCc3cc(C(F)(F)F)ccc32)cc1 (single isomer, unassigned) [Compound II-58, 4-(methanesulfonamido)-N-[5-(trifluoromethyl)indan-1-yl]benzamide]"
20,≤ 1,Cc1cccc(C(=O)N[C@@H]2CCc3cc(Cl)ccc32)c1O [Compound III-15]
21,≥ 20,NS(=O)(=O)c1c[nH]c(C(=O)N[C@@H]2CCc3cc(Cl)ccc32)c1 [Compound I-14]
22,≤ 1,CS(=O)(=O)c1ncc(C(=O)N[C@@H]2CCc3cc(Cl)ccc32)s1 [Compound I-27]
23,≤ 1,O=C(N[C@@H]1CCc2cc(Cl)ccc21)c1cc(Cl)ccc1O [Compound III-11]
24,1 to 20,Cn1nc(C(=O)N[C@@H]2CCc3cc(Cl)ccc32)cc1C1CC1 [Compound I-1]

row,IC50 [µM],Compound
1,1 to 20,"CS(=O)(=O)c1ccc(C(=O)N[C@H]2CCCc3cc(Cl)ccc32)cc1 (single isomer, unassigned) [Compound II-55]"
2,≤ 1,O=C(N[C@@H]1CCc2cc(Cl)ccc21)c1ccc(S(=O)(=O)N2CCCC2)s1 [Compound I-17]
3,1 to 20,"CS(=O)(=O)Cc1ccc(C(=O)NC2CCc3cc(Cl)ccc32)cc1 (single isomer, unassigned) [Compound II-6, N-(5-chloroindan-1-yl)-4-(methylsulfonylmethyl)benzamide]"
4,≤ 1,CN(C)S(=O)(=O)c1ccc(C(=O)N[C@@H]2CCc3cc(Cl)ccc32)s1 [Compound I-15]
5,≤ 1,CC(=O)N(C)Cc1ccc(C(=O)N[C@@H]2CCc3cc(Cl)ccc32)s1 [Compound I-39]
6,≤ 1,"CS(=O)(=O)Nc1ccc(C(=O)NC2CCCc3cc(Cl)ccc32)cc1 (single isomer, unassigned) [Compound II-53, N-(6-chlorotetralin-1-yl)-4-(methanesulfonamido)benzamide]"
7,≤ 1,O=C(N[C@@H]1CCc2cc(Cl)ccc21)c1ccc(S(=O)(=O)C(F)(F)F)cc1 [Compound II-38]
8,≤ 1,CC(=O)NCc1ccc(C(=O)N[C@@H]2CCc3cc(Cl)ccc32)s1 [Compound I-44]
9,≤ 1,CS(=O)(=O)c1ccc(C(=O)N[C@@H]2CCc3cc(Cl)ccc32)cc1 [Compound II-22]
10,≥ 20,"Nc1ccc(C(=O)N[C@H]2CCc3cc(Cl)ccc32)cc1 (single isomer, unassigned) [Compound II-16]"
11,≤ 1,COCCS(=O)(=O)c1ccc(C(=O)N[C@@H]2CCc3cc(Cl)ccc32)s1 [Compound I-47]
12,≤ 1,O=C(N[C@@H]1CCc2cc(Cl)ccc21)c1ccc(S(=O)(=O)C(F)F)cc1 [Compound II-42]
13,≤ 1,"NC(=O)c1ccc(C(=O)N[C@@H]2CCCc3cc(Cl)ccc32)s1 (single isomer, unassigned) [Compound I-31]"
14,1 to 20,CNC(=O)c1ccc(C(=O)N[C@@H]2CCc3cc(Cl)ccc32)cc1 [Compound II-24]
15,1 to 20,COc1cccc(O)c1C(=O)N[C@@H]1CCc2cc(Cl)ccc21 [Compound III-13]
16,≤ 1,O=C(N[C@@H]1CCc2cc(Cl)ccc21)c1ccc(S(=O)(=O)C2CC2)cc1 [Compound II-39]
17,> 20,"O=C(N[C@H]1CCc2cc(Cl)ccc21)c1ccc(NS(=O)(=O)C2CC2)cc1 [Compound II-18, N-[(1S)-5-chloroindan-1-yl]-4-(cyclopropylsulfonylamino)benzamide]"
18,≤ 1,CNS(=O)(=O)c1ccc(C(=O)N[C@@H]2CCc3cc(Cl)ccc32)s1 [Compound I-16]
19,≤ 1,Cn1nc(C(F)(F)F)cc1C(=O)N[C@@H]1CCc2cc(Cl)ccc21 [Compound I-26]
20,≤ 1,O=C(N[C@@H]1CCc2cc(Cl)ccc21)c1cc(F)ccc1O [Compound III-6]
21,≥ 20,Cn1cc(S(N)(=O)=O)cc1C(=O)N[C@@H]1CCc2cc(Cl)ccc21 [Compound I-7]
22,≥ 20,"O=C(N[C@H]1CCc2cc(Cl)ccc21)c1ccc(NS(=O)(=O)C(F)(F)F)cc1 [Compound II-29, N-[(1S)-5-chloroindan-1-yl]-4-(trifluoromethylsulfonylamino)benzamide]"
23,≤ 1,"CS(=O)(=O)c1ccc(C(=O)N[C@H]2CCCc3cc(Cl)ccc32)s1 (single isomer, unassigned) [Compound I-24]"
24,≤ 1,"CNS(=O)(=O)c1ccc(C(=O)N[C@H]2CCCc3cc(Cl)ccc32)s1 (single isomer, unassigned) [Compound I-22]"
